In US7002015B2, “3-Thia-4-arylquinolin-2-one derivatives as smooth muscle relaxants” (Bristol-Myers Squibb Company, priority 2003, dated 2006):

Legend:
Format in all cases: cell-based
[1] = system: cloned mammalian (mSlo or hSlo) BK; test: Assay for BK channel openers: two-electrode voltage clamp of BK-mediated outward current in Xenopus oocytes; settings: percent of control IBTX-sensitive current at +140 mV; 20 μM (or as otherwise indicated); 5–10 oocytes
Method: The ability of the compounds of the invention to open BK channels and increase whole-cell outward (K^+) BK-mediated currents was assessed under voltage-clamp conditions by determining their ability to increase cloned mammalian (mSlo or hSlo) BK-mediated outward current heterologously expressed in Xenopus oocytes [Butler, A., et al., Science 1993, 261, 221–224; Dworetzky, S. I., et al., Mol. Brain Res. 1994, 27, 189–193; Gribkoff, V. K., et al., Mol. Pharmacol. 1996, 50, 206–217]. The two BK constructs employed represent nearly structurally identical homologous proteins, and have proven to be pharmacologically indistinguishable in our tests. To isolate BK current from native (background, non-BK) current, the specific and potent BK channel-blocking toxin iberiotoxin (IBTX) [Galvez, A., et al., J. Biol. Chem. 1990, 265, 11083–11090] was employed at a supramaximal concentration, e.g., 50–100 nanomolar (“nM”). The relative contribution of BK channel-mediated current to total outward current was determined by subtraction of the current remaining in the presence of IBTX (non-BK current) from the current profiles obtained in all other experimental conditions (control, drug, and wash) [Gribkoff, V. K. et al., Mol. Pharmacol. 1996, 50, 206–217]. […] All compounds were tested in 5–10 oocytes and are reported at the indicated concentration of 20 micromolar (“μM”) (or as otherwise indicated); the effect of the selected compounds of the invention on BK current was expressed as the percent of control IBTX-sensitive current at a single transmembrane voltage (+140 mV) and is listed in Table 1. Recordings were accomplished using standard two-electrode voltage clamp techniques [Stuhmer, W., et al., Methods in Enzymology, 1992, 207, 319–339]; voltage-clamp protocols consisted of 500–750 milliseconds (“ms”) duration step depolarizations, from a holding potential of −60 mV, to a final voltage up to +140 mV in 20 mV steps. The experimental media (modified Barth's solution) consisted of millimolar (“mM”): NaCl (88), NaHCO3 (2.4), KCl (1.0), HEPES (10), MgSO4 (0.82), Ca(NO3)2 (0.33), CaCl2 (0.41); pH 7.5.

[2] = system: rat small intestine tissue; test: Rat small intestine (ileum) segments: inhibition of nifedipine-sensitive force; set-up: concentration or dose not given beside the values; settings: integral of nifedipine-sensitive force pre- and 30 min post-compound
From the text: The ability of the compounds of the invention to relax rat small intestine tissue as a model for the treatment of irritable bowel syndrome is described as follows. Male rats (Harlan, Sprague Dawley, 250–350 g) were sacrificed by decapitation. A portion of small intestine (ileum) was removed and the attached connective tissues and intestinal contents removed. The ileum was cut into segments of ≦1 cm in length. The segments were mounted longitudinally between fixed hooks in organ baths containing warm (37° C.) physiological salt solution (composition in mM: NaCl 118.4, KCl 4.7, KH2PO4 1.2, MgSO4 1.2, CaCl2 1.8, Glucose 10.1, NaHCO3 25; gassed with 95% O2/5% CO2, pH 7.4). A stable tension of ˜1.5 g was maintained in the tissue segments during the equilibration period of 45 minutes. Changes in muscle tension were measured with isometric force transducers (Grass, FT-03C) and recorded using AcqKnowledge data acquisition system (AcqKnowledge for MP100WS, Biopac Systems Inc., Goleta, Calif.). Compound or vehicle was added in the baths for 30 minutes. “Zero” active force was established at the end of the experiment using nifedipine (20 μM). The effects of compounds or vehicle on force was determined by measuring the integral of nifedipine-sensitive force (including resting tone and spontaneous contractions) pre- and 30 min post-compound (or vehicle) addition. Results are expressed as the percentage inhibition of force. DMSO vehicle inhibited force (integral) by −0.6±3.0% (n=25).

[3] = system: rabbit corpus cavernosum tissue; test: Rabbit corpus cavernosum strips: relaxation of phenylephrine-induced force; settings: Oryctolagus cuniculus, inhibition of phenylephrine (3 μM)-induced force as compared to vehicle control, read-out: % Inhibition of force (RCC strips)
Method: The ability of the compounds of the invention to relax rabbit corpus cavernosum tissue as a model for the treatment of erectile dysfunction is described as follows. New Zealand white rabbits (3.4–3.7 kg) were euthanized by sodium pentobarbital (100 mg/kg) overdose. The penis from each animal was rapidly removed and immersed in a cold oxygenated modified Krebs Henseleit bicarbonate buffer. The penis' outer tunica was removed and the corpus cavernosum smooth muscle obtained and cut into strips approximately 3–5 mm long. The strips were suspended in tissue baths containing physiological salt solution (see above), and allowed to equilibrate for at least one hour under resting tension of 1.0 gram. Isometric force was measured as described above. Tissue strips were stimulated with the α-agonist phenylephrine (3 μM) and allowed to reach a steady level of force prior to the addition of test compounds. The results are expressed as the percentage inhibition of phenylephrine-induced force as compared to vehicle control.

CC1CCCN(CCCC(=O)CSc2c(-c3cc(Cl)ccc3O)c3cc(C(F)(F)F)ccc3[nH]c2=O)C1 (stereo not drawn) [Example 65, 4-(5-Chloro-2-hydroxyphenyl)-3-[[5-(3-methyl-1-piperidinyl)-2-oxopentyl]thio]-6-(trifluoromethyl)-2(1H)-quinolinone]
% MaxiK opening* [1]: 271%

CN1CCN(CCC(=O)CSc2c(-c3cc(Cl)ccc3O)c3cc(C(F)(F)F)ccc3[nH]c2=O)CC1 [Example 3, 4-(5-Chloro-2-hydroxy-phenyl)-3-[4-(4-methyl-piperazin-1-yl)-2-oxo-butylsulfanyl]-6-trifluoromethyl-1H-quinolin-2-one]
% MaxiK opening* [1]: 550%

CN(C)CCCN(C)CCC(=O)CSc1c(-c2cc(Cl)ccc2O)c2cc(C(F)(F)F)ccc2[nH]c1=O [Example 35, 4-(5-Chloro-2-hydroxyphenyl)-3-[[4-[[3-(dimethylamino)propyl]methylamino]-2-oxobutyl]thio]-6-(trifluoromethyl)-2(1H)quinolinone]
% MaxiK opening* [1]: 178%

O=C(CCCN1CCC(N2CCCCC2)CC1)CSc1c(-c2cc(Cl)ccc2O)c2cc(C(F)(F)F)ccc2[nH]c1=O [Example 72, 3-[(5-[1,4′-Bipiperidin]-1′-yl-2-oxopentyl)thio]-4-(5-chloro-2-hydroxyphenyl)-6-(trifluoromethyl)-2(1H)-quinolinone]
% MaxiK opening* [1]: 298%

O=C(CSc1c(-c2cc(Cl)ccc2O)c2cc(C(F)(F)F)ccc2[nH]c1=O)N1CCN(CCOCCO)CC1 [Example 98, 2-[2-[4-[[[4-(5-Chloro-2-hydroxyphenyl)-1,2-dihydro-2-oxo-6-(trifluoromethyl)-3-quinolinyl]thio]acetyl]-1-piperazinyl]ethoxy]ethanol]
% MaxiK opening* [1]: 205% | % Inhibition of force (RSI strips) [2]: 9% | inhibition [3]: 17%

CN1CCN(C(=O)CSc2c(-c3cc(Cl)ccc3O)c3cc(C(F)(F)F)ccc3[nH]c2=O)CC1 [Example 84, 1-[[[4-(5-Chloro-2-hydroxyphenyl)-1,2-dihydro-2-oxo-6-(trifluoromethyl)-3-quinolinyl]thio]acetyl]-4-methylpiperazine]
% MaxiK opening* [1]: 422% | inhibition [3]: 14.4%

CC1CCN(CCCC(=O)CSc2c(-c3cc(Cl)ccc3O)c3cc(C(F)(F)F)ccc3[nH]c2=O)CC1 [Example 66, 4-(5-Chloro-2-hydroxyphenyl)-3-[[5-(4-methyl-1-piperidinyl)-2-oxopentyl]thio]-6-(trifluoromethyl)-2(1H)-quinolinone]
% MaxiK opening* [1]: 213%

O=C(CCN1CCCC1)CSc1c(-c2cc(Cl)ccc2O)c2cc(C(F)(F)F)ccc2[nH]c1=O [Example 2, 4-(5-Chloro-2-hydroxy-phenyl)-3-(2-oxo-4-pyrrolidin-1-yl-butylsulfanyl)-6-trifluoromethyl-1H-quinolin-2-one]
% MaxiK opening* [1]: 335% | inhibition [3]: 30%

CCOC(=O)CN1CCN(C(=O)CSc2c(-c3cc(Cl)ccc3O)c3cc(C(F)(F)F)ccc3[nH]c2=O)CC1 [Example 107, 4-[[[4-(5-Chloro-2-hydroxyphenyl)-1,2-dihydro-2-oxo-6-(trifluoromethyl)-3-quinolinyl]thio]acetyl]-1-piperazineacetic acid, ethyl ester]
% MaxiK opening* [1]: 281% | % Inhibition of force (RSI strips) [2]: 46% | inhibition [3]: 19%

CN1CCC(N(C)CCCC(=O)CSc2c(-c3cc(Cl)ccc3O)c3cc(C(F)(F)F)ccc3[nH]c2=O)C1 (stereo not drawn) [Example 68, 4-(5-chloro-2-hydroxyphenyl)-3-[[5-[methyl(1-methyl-3-pyrrolidinyl)amino]-2-oxopentyl]thio]-6-(trifluoromethyl)-2(1H)-quinolinone]
% MaxiK opening* [1]: 226%

CN(C)C1CCN(C(=O)CSc2c(-c3cc(Cl)ccc3O)c3cc(C(F)(F)F)ccc3[nH]c2=O)CC1 [Example 5, 4-(5-Chloro-2-hydroxy-phenyl)-3-[2-(4-dimethylamino-piperidin-1-yl)-2-oxo-ethylsulfanyl]-6-trifluoromethyl-1H-quinolin-2-one]
% MaxiK opening* [1]: 286% | % Inhibition of force (RSI strips) [2]: 58.5% | inhibition [3]: 34.5%

CC(=O)N1CCN(CCCC(=O)CSc2c(-c3cc(Cl)ccc3O)c3cc(C(F)(F)F)ccc3[nH]c2=O)CC1 [Example 63, 1-Acetyl-4-[5-[[4-(5-chloro-2-hydroxyphenyl)-1,2-dihydro-2-oxo-6-(trifluoromethyl)-3-quinolinyl]thio]-4-oxopentyl]piperazine]
% MaxiK opening* [1]: 284%

O=C(CCN1CCC(O)CC1)CSc1c(-c2cc(Cl)ccc2O)c2cc(C(F)(F)F)ccc2[nH]c1=O [Example 30, 4-(5-Chloro-2-hydroxyphenyl)-3-[[4-(4-hydroxy-1-piperidinyl)-2-oxobutyl]thio]-6-(trifluoromethyl)-2(1H)-quinolinone]
% MaxiK opening* [1]: 235%

O=C(CCN1CCN(CCO)CC1)CSc1c(-c2cc(Cl)ccc2O)c2cc(C(F)(F)F)ccc2[nH]c1=O [Example 21, 4-(5-Chloro-2-hydroxyphenyl)-3-[[4-[4-(2-hydroxyethyl)-1-piperazinyl]-2-oxobutyl]thio]-6-(trifluoromethyl)-2(1H)-quinolinone]
% MaxiK opening* [1]: 241%

NC(=O)C1CCN(C(=O)CSc2c(-c3cc(Cl)ccc3O)c3cc(C(F)(F)F)ccc3[nH]c2=O)CC1 [Example 105, 1-[[[4-(5-Chloro-2-hydroxyphenyl)-1,2-dihydro-2-oxo-6-(trifluoromethyl)-3-quinolinyl]thio]acetyl]-4-piperidinecarboxamide]
% MaxiK opening* [1]: 203% | % Inhibition of force (RSI strips) [2]: 62% | inhibition [3]: 67%

O=C(CSc1c(-c2cc(Cl)ccc2O)c2cc(C(F)(F)F)ccc2[nH]c1=O)N1CCN(CCO)CC1 [Example 103, 4-[[[4-(5-Chloro-2-hydroxyphenyl)-1,2-dihydro-2-oxo-6-(trifluoromethyl)-3-quinolinyl]thio]acetyl]-1-piperazineethanol]
% MaxiK opening* [1]: 151% | % Inhibition of force (RSI strips) [2]: 22.5% | inhibition [3]: 22%

O=C(CCN1CCCCC1)CSc1c(-c2cc(Cl)ccc2O)c2cc(C(F)(F)F)ccc2[nH]c1=O [Example 7, 4-(5-Chloro-2-hydroxyphenyl)-3-[[2-oxo-4-(1-piperidinyl)butyl]thio]-6(trifluoromethyl)-2(1H)-quinolinone]
% MaxiK opening* [1]: 199% | % Inhibition of force (RSI strips) [2]: 29%
